# Reference: patent US12180210B2, “Compounds” (INTRA-CELLULAR THERAPIES, INC., priority 2018, dated 2024)
# Like-named read-outs stand apart in the source and are kept apart here.
# How the values were obtained:
# mice [1] = test: Forced swim paradigm, acute antidepressant-like activity; format: in vivo
# mice [2] = test: Tail suspension paradigm, acute antidepressant-like activity; format: in vivo
# mice [3] = test: Spontaneous locomotor activity; settings: same dose levels that increased anxiolytic activity
# mice [4] = test: Hole board test, acute anxiolytic activity; settings: compound 1, 2, and 5 mg/kg, i.p., diazepam 0.5 mg/kg
# mice [5] = test: Elevated plus maze, acute anxiolytic activity; settings: compound 1, 2, and 5 mg/kg, i.p., diazepam 0.5 mg/kg
# [6] = Pharmacokinetic study in mice, plasma and brain availability; settings: single oral dose 10 mg/kg PO
# Procedure: (§1) Mice are given a single oral dose of the compound to be tested (10 mg/kg, PO) and plasma and brain availability are measured (0.25-4h) using HPLC and LC-MS using methods analogous to those described in Zhao et al., J. Chromatogr.
# PDE1 = test: PDE isoform inhibition, IMAP procedure; format: biochemical
# PDE3 = test: PDE isoform inhibition, IMAP procedure; format: biochemical
# PDE4 = test system: T1, PDE4; test: PDE isoform inhibition, IMAP procedure; format: biochemical
# T1 construct: PDE4 IC50
# PDE5 = PDE5 (Homo sapiens, UniProt O76074); test: PDE isoform inhibition, IMAP procedure; format: biochemical
# PDE6 = test: PDE isoform inhibition, IMAP procedure; format: biochemical
# [7] = test system: HT-22 (hippocampal-like) cells; test: cGMP levels in HT-22 cells stimulated by NMDA; format: cell-based
# HT22 cells = test: cAMP levels in HT22 cells stimulated by isoproterenol; format: cell-based
# [8] = test system: VASP (vasodilator stimulated phosphoprotein); test: Phosphorylation of effector proteins under cGMP/cAMP control: VASP; format: cell-based
# [9] = test system: CREB (cAMP response element-binding protein); test: Phosphorylation of effector proteins under cGMP/cAMP control: CREB; format: cell-based
# BDNF = test: Expression of the growth factor BDNF; format: cell-based
# [10] = test system: cGMP and cAMP levels in hippocampus; test: In vivo levels of cGMP and cAMP in mouse brain (hippocampus); settings: mice killed 30 min after injection
# Procedure: For these studies, mice were killed 30 min after injection of each drug/dose and hippocampus isolated and used for measurement of cyclic nucleotides.
# mice [11] = settings: mouse, in vivo
# in vivo = settings: mouse, po, 10 mg/kg
# Procedure: as §1
smiles,measurement,setting,value
"CNCCCN1c2ccccc2CCc2ccccc21 [Desipramine, desipramine]","Immobility time / antidepressant-like activity, forced swim",mice [1],induced signs of antidepressant-like activity
same,"Immobility time / antidepressant-like activity, tail suspension",mice [2],induced signs of antidepressant-like activity
"CN1C(=O)CN=C(c2ccccc2)c2cc(Cl)ccc21 [Diazepam, diazepam]",Spontaneous locomotor activity,mice [3],did not significantly affect spontaneous locomotor activity
same,"Exploration, hole board test",mice [4],increased explorations
same,"Open arm entrances, elevated plus maze",mice [5],increased entrance into open arms
COc1ccc(Cc2nn3c([C@@H](CCCc4ccccc4)[C@@H](C)O)nc(C)c3c(=O)[nH]2)cc1OC [BAY-7550],"Immobility time / antidepressant-like activity, forced swim",mice [1],generally smaller effects that did not reach significance in all assays
same,"Immobility time / antidepressant-like activity, tail suspension",mice [2],generally smaller effects that did not reach significance in all assays
same,"Open arm entrances, elevated plus maze",mice [5],small trends for these assays that did not achieve statistical significance
same,"Open arm entrances, elevated plus maze",mice [5]; listed as commercial PDE2 inhibitor,no statically significant effect
same,Tmax,[6],0.25
"Cc1ccc(-c2c(-c3nc(C)n4ccnc(N5CCC5)c34)cnn2C)cc1 [Compound 1, 8-(azetidin-1-yl)-3-methyl-1-(1-methyl-5-(p-tolyl)-1H-pyrazol-4-yl)imidazo[1,5-a]pyrazine]",IC50,PDE1,8.3 µM
same,IC50,PDE3,> 100 µM
same,IC50,PDE4,24.8 µM
same,IC50,PDE5,15.1 µM
same,IC50,PDE6,> 100 µM
same,Optimal dose for stimulation of cGMP levels,[7],10 nM
same,cGMP levels,"[7]; NMDA (20 μM), 15 min incubation",dose-dependent increase
same,Optimal dose for stimulation of cAMP levels,HT22 cells,10 nM
same,cAMP levels,"HT22 cells; isoproterenol (ISO, 10 nM)",dose-dependent increase
same,Phosphorylation of VASP,[8],concentration-dependent increase
same,Phosphorylation of CREB,[9],concentration-dependent increase
same,Expression of BDNF,BDNF,increased the expression
same,"Immobility time / antidepressant-like activity, forced swim",mice [1],significantly reduced immobility time
same,"Immobility time / antidepressant-like activity, tail suspension",mice [2],significantly reduced immobility time
same,cAMP levels in hippocampus,[10],significant increases
same,cGMP levels in hippocampus,[10],significant increases
same,Spontaneous locomotor activity,mice [11],did not significantly affect spontaneous locomotor activity
same,AUC(0-t),in vivo,0.119 µg·h/mL
same,Cmax,in vivo,0.268 µg/mL
same,Tmax,in vivo,30 min
same,half-life,in vivo,48 min
same,"Open arm entrances, elevated plus maze",mice [5],significantly increased open arm entrances
